Assay results reported in ChEMBL document CHEMBL1201862, “PubChem BioAssay data set” (2004).
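Interpolation was linear, between the two tested concentrations surrounding the appropriate level; five concentrations were tested over 48 hours in 96-well plates. GI50: concentration for 50% inhibition of growth.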 Calls of active or inactive are those of the source. No stated cut-off is given here; in the data, active = GI50 up to about 1.1 µM and inactive = higher.

What was measured:
Experiment in all cases: NCI tumour cell line growth inhibition, 48 h
786-0 = system: 786-0
A498 = system: A498
A549 = system: A549
BT-549 = system: BT-549
CCRF-CEM = system: CCRF-CEM
HL-60 = system: HL-60
K562 = system: K562
KM12 = system: KM12
MCF7 = system: MCF7
MDA-MB-231 = system: MDA-MB-231
NCI-H522 = system: NCI-H522
NCI/ADR-RES = system: NCI/ADR-RES
OVCAR-3 = system: OVCAR-3
RXF 393 = system: RXF 393
SF-295 = system: SF-295
SK-MEL-28 = system: SK-MEL-28
SK-MEL-2 = system: SK-MEL-2
SN12C = system: SN12C
SNB-75 = system: SNB-75
UO-31 = system: UO-31

SMILES	GI50 (786-0)	GI50 (A498)	GI50 (A549)	GI50 (BT-549)	GI50 (CCRF-CEM)	GI50 (HL-60)	GI50 (K562)	GI50 (KM12)	GI50 (MCF7)	GI50 (MDA-MB-231)	GI50 (NCI-H522)	GI50 (NCI/ADR-RES)	GI50 (OVCAR-3)	GI50 (RXF 393)	GI50 (SF-295)	GI50 (SK-MEL-28)	GI50 (SK-MEL-2)	GI50 (SN12C)	GI50 (SNB-75)	GI50 (UO-31)
CN(C)CCCCN1c2ccccc2Sc2cc(N=[N+]=[N-])ccc21	1.69 µM (inactive)	10 µM (inactive)	1.79 µM (inactive)	11 µM (inactive)	2.01 µM (inactive)	2.11 µM (inactive)	1.88 µM (inactive)	1.73 µM (inactive)	1.85 µM (inactive)	1.71 µM (inactive)	1.6 µM (inactive)	1.75 µM (inactive)	1.89 µM (inactive)	3.3 µM (inactive)	1.96 µM (inactive)	1.82 µM (inactive)	1.97 µM (inactive)	3.48 µM (inactive)	1.8 µM (inactive)	1.83 µM (inactive)
N#CC1=C(N)OC2=C(CCCc3ccc([N+](=O)[O-])cc32)C1c1ccccc1 (configuration not stated)	9.98 µM (inactive)	2.76 µM (inactive)	6.21 µM (inactive)	4.5 µM (inactive)	–	1.64 µM (inactive)	2.57 µM (inactive)	3.15 µM (inactive)	3.45 µM (inactive)	17.7 µM (inactive)	2.14 µM (inactive)	2.38 µM (inactive)	2.21 µM (inactive)	4.18 µM (inactive)	3.21 µM (inactive)	5.82 µM (inactive)	4.58 µM (inactive)	6 µM (inactive)	82.8 µM (inactive)	8.79 µM (inactive)
Cc1nc(C(N)=S)sc1C(=O)CC(=O)C(=O)Nc1cccc(Cl)c1C	> 100 µM (inactive)	> 100 µM (inactive)	> 100 µM (inactive)	> 100 µM (inactive)	> 100 µM (inactive)	> 100 µM (inactive)	> 100 µM (inactive)	> 100 µM (inactive)	> 100 µM (inactive)	> 100 µM (inactive)	> 100 µM (inactive)	> 100 µM (inactive)	> 100 µM (inactive)	> 100 µM (inactive)	> 100 µM (inactive)	> 100 µM (inactive)	> 100 µM (inactive)	> 100 µM (inactive)	> 100 µM (inactive)	> 100 µM (inactive)
COc1cc(CCNC2=CC(=O)c3cccnc3C2=O)ccc1O	1.37 µM (inactive)	2.6 µM (inactive)	1.56 µM (inactive)	1.37 µM (inactive)	3.64 µM (inactive)	2.5 µM (inactive)	0.483 µM (active)	1.95 µM (inactive)	0.16 µM (active)	0.736 µM (active)	0.721 µM (active)	2.55 µM (inactive)	2.04 µM (inactive)	0.955 µM (active)	1.32 µM (inactive)	1.22 µM (inactive)	1.35 µM (inactive)	0.944 µM (active)	0.83 µM (active)	0.916 µM (active)
CC(=O)OC[C@@]12C[C@H]3C(=O)C(C)(C)C[C@H]3[C@]1(C)[C@@H](OC(C)=O)[C@]1(O)[C@H]([C@@H](OC(=O)c3ccccc3)[C@@H](C)[C@H]1OC(C)=O)[C@H]2OC(C)=O	> 20 µM (inactive)	> 20 µM (inactive)	–	> 20 µM (inactive)	6.21 µM (inactive)	4.92 µM (inactive)	6.87 µM (inactive)	> 20 µM (inactive)	> 20 µM (inactive)	> 20 µM (inactive)	> 20 µM (inactive)	> 20 µM (inactive)	> 20 µM (inactive)	> 20 µM (inactive)	15.3 µM (inactive)	–	> 20 µM (inactive)	> 20 µM (inactive)	> 20 µM (inactive)	> 20 µM (inactive)
CC1(C)OC(=S)N(c2ccccc2)C12C=Cc1ccccc1O2 (configuration not stated)	> 100 µM (inactive)	> 100 µM (inactive)	> 100 µM (inactive)	79.3 µM (inactive)	27.8 µM (inactive)	8.59 µM (inactive)	29.1 µM (inactive)	35 µM (inactive)	61.1 µM (inactive)	> 100 µM (inactive)	20.2 µM (inactive)	53.5 µM (inactive)	> 100 µM (inactive)	> 100 µM (inactive)	73.5 µM (inactive)	> 100 µM (inactive)	> 100 µM (inactive)	> 100 µM (inactive)	49.2 µM (inactive)	45.6 µM (inactive)
O=[N+]([O-])c1ccc(Sc2c3ccccc3nc3ccccc23)nc1	2.2 µM (inactive)	18.5 µM (inactive)	26.2 µM (inactive)	14.1 µM (inactive)	2.51 µM (inactive)	4.48 µM (inactive)	2.08 µM (inactive)	23.8 µM (inactive)	3.79 µM (inactive)	6.14 µM (inactive)	2.73 µM (inactive)	19 µM (inactive)	5.74 µM (inactive)	3.28 µM (inactive)	26.1 µM (inactive)	4.75 µM (inactive)	20.4 µM (inactive)	13.2 µM (inactive)	15.6 µM (inactive)	5.08 µM (inactive)
